These results are taken from PMC3471066, “The Inhibitory Effect of Prunella vulgaris L. on Aldose Reductase and Protein Glycation” (Journal of Biomedicine and Biotechnology, 2012).

Where two headings read alike, the source gives them in different places.

One experiment in a line: ABTS•+ assay. As for the experimental part:
The method of Re et al. was used with slight modification. The ABTS diammonium salt (2 mM) and potassium persulfate (3.5 mM) were mixed and diluted in distilled water kept in the dark at room temperature for 24 h before use. After addition of ABTS^•+ solution to 10 μL of antioxidant compounds were recorded at after 10 min reaction. The percentage inhibition of absorbance at 750 nm is calculated and potted as a function of concentration of antioxidants. Trolox was used as positive control.

Experiment [1] is described as follows: Effects on AGEs formation (BSA-methylglyoxal, fluorescence). The class given is biochemical. Here is the method: The modified procedure of Lee et al. was followed. Bovine serum albumin (10 mg/mL) was incubated with 5 mM methylglyoxal in sodium phosphate buffer (100 mM; pH 7.4). […] All of the reagent and samples were sterilized by filtration through 0.2 μM membrane filters, and the mixture was incubated at 37°C for 7 days. The fluorescence intensity was measured at an excitation wavelength of 330 nm and an emission wavelength of 410 nm with a LS50B fluorescence spectrometer (Perkin-Elmer Ltd., USA). Aminoguanidine was also tested as a known inhibitor.

For experiment [2], the target named is T1, rat lens aldose reductase (rAR) (Rattus norvegicus, UniProt P07943).
T1 construct: from tissue; host or cells: lens of Sprague-Dawley rats (homogenate supernatant)
The experiment is described as follows: Rat lens aldose reductase (rAR) inhibition, NADPH decrease at 340 nm. The class given is biochemical.

The test system of another experiment is rat lenses. The experiment is described as follows: Lens culture and intracellular galactitol measurement. It is filed as cell-based. To be noted: for Galactitol content in rat lens: 30 mM galactose, 5 μg/mL compound, 6 d; for inhibition at 5 µg/mL: Rattus norvegicus, 5 μg/mL, read-out: inhibition of galactitol accumulation in rat lenses. As for the experimental part:
Lenses isolated from 10-week-old male rats were cultured for 6 d in TC-199 medium that contained 15% fetal bovine serum 100 units/mL penicillin and 0.1 mg/mL streptomycin under sterile conditions in an atmosphere of 5% CO2 and 95% air at 37°C. Samples were dissolved in dimethyl sulfoxide. The lenses were divided into 5 groups and cultured in medium containing 5 mM glucose, 30 mM galactose, and rosmarinic acid or caffeic acid ethylene ester. Each lens was placed in well containing 1.0 mL of medium. Galactitol was determined by HPLC after its derivatization by reaction with benzoic acid to a fluorescent compound [20].

In the next experiment the test system is rat erythrocyte. The experiment is described as follows: Blood culture (erythrocyte) and intracellular galactitol measurement. It is filed as cell-based. The settings on record: for Rat erythrocyte galactitol content: 30 mM galactose, 5 μg/mL compound, 3 h; for inhibition at 5 µg/mL: Rattus norvegicus, Erythrocyte, 5 μg/mL, read-out: inhibition of galactitol accumulation in rat erythrocyte. As for the experimental part: Blood sample was collected in heparin-containing polypropylene tube from 10-week-old male rats. For sugar and sugar alcohol analysis, erythrocytes from heparinized blood were separated from the plasma and buffy coat by centrifuging at 2000×g for 10 min. The cells were washed thrice with normal saline (0.9% NaCl) at 4°C. In the final washing, the cells were centrifuged at 2000 ×g for 10 min to obtain a consistently packed cell preparation. The packed cells (1 mL) were then incubated in a Krebs-Ringer bicarbonate buffer (pH 7.4) containing 30 mM galactose in the presence or absence of samples at 37°C in 5% CO2 for 3 h. The erythrocytes were washed with cold saline by centrifuging at 2000 ×g for 10 min, precipitated by adding 6% of cold perchloric acid (3 mL), and centrifuged again at 2000 ×g for 10 min. The supernatant was neutralized with 2.5 M K2CO3 at 4°C and used for galactitol determination. HPLC analysis for sugar and sugar alcohol in blood was performed with this supernatant of red blood cell homogenate after being benzoylated.

Experiment [3] concerns the target T2, human recombinant aldose reductase (rhAR) (Homo sapiens, UniProt P15121).
T2 construct: purchased Wako Pure Chemical Industries (Osaka, Japan)
The experiment is described as follows: Human recombinant aldose reductase (rhAR) inhibition. It is filed as biochemical.

In experiment [4] the target is T2, human recombinant aldose reductase (rhAR). As to the kind of experiment: Kinetics of rhAR inhibition, Lineweaver-Burk plots. The class given is biochemical. To be noted: DL-glyceraldehyde 0.1-1 mM. As for the experimental part:
Reaction mixtures consisted of 0.1 M potassium phosphate, 0.16 mM NADPH, 2 mM of recombinant human aldose reductase (rhAR) with varied concentrations of substrate DL-glyceraldehyde and AR inhibitor in a total volume of 200 μL. Concentrations were ranged from 0.1 to 1 mM for DL-glyceraldehyde, and from 0.1 to 1 mM for active compound. Recombinant human aldose reductase activity was assayed spectrophotometrically by measuring the decrease in absorption of NADPH at 340 nm after substrate addition using Bio Tek Power Wave XS spectrophotometer (Bio Tek Instruments, VT, USA).

Turning to `Cc1c(C)c2c(c(C)c1O)CCC(C)(C(=O)O)O2` (stereo not shown) [Trolox, reference compound], in the experiment “ABTS•+ assay”, the “ABTS•+ IC50” value was 3.84 ± 0.10 µg/mL. Moreover, the IC50 in the experiment “ABTS•+ assay” worked out at 15.3 ± 0.4 µM. The results for the “Inhibition (%) of ABTS•+” value in the experiment “ABTS•+ assay” (1.67 μg/mL), in the experiment “ABTS•+ assay” (3.33 μg/mL) and in the experiment “ABTS•+ assay” (16.67 μg/mL) were 21.76 ± 1.15%, 45.48 ± 1.20% and 99.44 ± 0.20%, respectively.

With `N=C(N)NN` [Aminoguanidine, reference compound], the “AGEs IC50” value in experiment [1] turned out to be 143.92 ± 0.62 µg/mL. Besides, the midpoint of inhibition in experiment [1], the IC50, lay at 1945 ± 8.39 µM. The “Inhibition (%) of AGEs” value was 3.96 ± 0.06% in experiment [1] (19.61 μg/mL), 37.39 ± 0.52% in experiment [1] (98.04 μg/mL) and 66.85 ± 0.13% in experiment [1] (196.08 μg/mL).

On to `O=Cc1ccc(O)c(O)c1` [Compound 6, protocatechualdehyde], for which the figures for the IC50 (in experiment [1]; in the experiment “ABTS•+ assay”) were 304 ± 3.41 µM and 12.4 ± 0.33 µM, respectively. In addition, the “Inhibition (%) of AGEs” value in experiment [1] (19.61 μg/mL) is given as 9.85 ± 0.16%; in experiment [1] (49.02 μg/mL), 63.45 ± 1.16%; in experiment [1] (98.04 μg/mL) it was 88.69 ± 0.56%. The “Inhibition (%) of ABTS•+” value in the experiment “ABTS•+ assay” (0.33 μg/mL) is 13.73 ± 0.37%; in “ABTS•+ assay” (1.67 μg/mL) it was 52.73 ± 0.93%; in the experiment “ABTS•+ assay” (3.33 μg/mL) it was 92.80 ± 1.50%.

For the compound `O=C(O)C=Cc1ccc(O)cc1` [Compound 3, p-hydroxycinnamic acid], the IC50 in experiment [2] (read-out: rAR IC50) was 8.35 ± 0.51 µM; in “ABTS•+ assay”, 5.94 ± 1.01 µM. Moreover, the “Inhibition (%) of ABTS•+” value in “ABTS•+ assay” (1.67 μg/mL) came to 47.60 ± 1.35%; in the experiment “ABTS•+ assay” (3.33 μg/mL), 59.65 ± 1.39%; in the experiment “ABTS•+ assay” (8.33 μg/mL), 74.05 ± 0.69%.

Regarding `O=C(O)/C=C/c1ccc(O)c(O)c1` [Compound 1, caffeic acid], in experiment [1] (19.61 μg/mL), the “Inhibition (%) of AGEs” value is reported as 9.33 ± 0.27%. For the same compound, the half-maximal inhibitory concentration (IC50) in “ABTS•+ assay” came to 12 ± 0.24 µM. Further, the “Inhibition (%) of ABTS•+” value was found to be 11.33 ± 0.31% in the experiment “ABTS•+ assay” (0.33 μg/mL), 34.65 ± 1.03% in the experiment “ABTS•+ assay” (1.67 μg/mL) and 75.14 ± 1.08% in “ABTS•+ assay” (3.33 μg/mL).

For `O=c1c(O)c(-c2ccc(O)c(O)c2)oc2cc(O)cc(O)c12` [Quercetin, quercetin, reference compound], in experiment [2] (1 μg/mL), the inhibition at 1 µg/mL stood at 44.7 ± 1.39%. The figures for the inhibition at 5 µg/mL (in experiment [2] (5 μg/mL); in the experiment with rat lenses; in the experiment on rat erythrocyte) were 64.7 ± 1.56%, 46.8% and 30.5%, respectively. Besides, in experiment [2] (10 μg/mL), the inhibition at 10 µg/mL was determined as 75.33 ± 0.55%. Also, in the experiment with rat lenses, the “Galactitol content in rat lens” value is listed as 448.81 ± 3.38 μg/lens wet weight (g). The “Rat erythrocyte galactitol content” value in the experiment on rat erythrocyte is 16.15 ± 0.39 µM.

Take `C=COC(=O)/C=C/c1ccc(O)c(O)c1` [Compound 5, caffeic acid ethylene ester]: the concentration for half-maximal inhibition (IC50) in experiment [2] (read-out: rAR IC50) was 3.2 ± 0.55 µM; in experiment [1], 33.2 ± 0.54 µM; in experiment [3] it was 12.6 ± 0.32 µM; in “ABTS•+ assay” it was 10.5 ± 0.28 µM. Also, the results for the “Inhibition (%) of AGEs” value in experiment [1] (1.96 μg/mL), in experiment [1] (4.9 μg/mL) and in experiment [1] (9.8 μg/mL) were 9.00 ± 0.43%, 33.94 ± 0.94% and 74.81 ± 1.41%, respectively. The “Inhibition (%) of ABTS•+” value in “ABTS•+ assay” (0.33 μg/mL) is listed as 13.00 ± 0.13%; in “ABTS•+ assay” (1.67 μg/mL), 50.17 ± 1.75%; in “ABTS•+ assay” (3.33 μg/mL) it was 84.68 ± 1.41%. Besides, the “Galactitol content in rat lens” value in the experiment on rat lenses is given as 653.76 ± 4.68 μg/lens wet weight (g). For the same compound, the inhibition at 5 µg/mL in the experiment with rat lenses is ~22.5%; in the experiment on rat erythrocyte, ~31.7%. The figures for the “inhibition type of rhAR” value in experiment [4] and in experiment [4] (listed as caffeic acid ethylene ester (5)) were “noncompetitive inhibition” and “noncompetitive”, respectively. In addition, the “Rat erythrocyte galactitol content” value in the experiment on rat erythrocyte stood at 15.89 ± 0.41 µM.

As for `O=C(/C=C/c1ccc(O)c(O)c1)O[C@H](Cc1ccc(O)c(O)c1)C(=O)O` [Compound 4, rosmarinic acid], the results for the IC50 (in experiment [2] (rAR IC50); in experiment [3]; in “ABTS•+ assay”) were 2.77 ± 0.48 µM, 18.6 ± 0.4 µM and 8.79 ± 0.1 µM, respectively. Also, the “Inhibition (%) of AGEs” value in experiment [1] (19.61 μg/mL) stood at 20.67 ± 0.37%. In addition, the “Inhibition (%) of ABTS•+” value turned out to be 9.93 ± 0.27% in “ABTS•+ assay” (0.33 μg/mL), 36.50 ± 0.78% in “ABTS•+ assay” (1.67 μg/mL) and 78.40 ± 1.17% in the experiment “ABTS•+ assay” (3.33 μg/mL). The “Galactitol content in rat lens” value in the experiment with rat lenses is recorded as 532.38 ± 6.56 μg/lens wet weight (g). Further, the inhibition at 5 µg/mL in the experiment with rat lenses was ~36.9%; in the experiment with rat erythrocyte it was ~35.5%. In addition, in experiment [4], the “inhibition type of rhAR” value is recorded as “noncompetitive”. Further, the “Rat erythrocyte galactitol content” value with rat erythrocyte is 15.05 ± 0.30 µM.

Turning to `O=C(O)c1ccc(O)c(O)c1` [Compound 2, protocatechuic acid], half-maximal inhibition in “ABTS•+ assay” (IC50) required 11.6 ± 0.22 µM. The “Inhibition (%) of ABTS•+” value in “ABTS•+ assay” (0.33 μg/mL) was found to be 14.90 ± 0.34%; in “ABTS•+ assay” (1.67 μg/mL), 53.79 ± 0.92%; in the experiment “ABTS•+ assay” (3.33 μg/mL), 93.42 ± 0.58%.
